These results are taken from ChEMBL document CHEMBL1135345, “Design and characterization of non-phosphopeptide inhibitors for Src family SH2 domains” (Bioorg Med Chem Lett, 2002).

For test [1], the target named is Tyrosine-protein kinase Fyn (Homo sapiens, UniProt P06241). The test can be described thus: Affinity for GST-Fyn-SH2 domain in ELISA.
Test [2] addresses Proto-oncogene tyrosine-protein kinase Src (Homo sapiens, UniProt P12931). The test can be described thus: Affinity for GST- Src-SH2 domain in ELISA. Background: In an ELISA, binding on a coated surface is turned into a signal by an enzyme label.
Test [3] deals with Tyrosine-protein kinase Lck (Homo sapiens, UniProt P06239). The test can be described thus: Affinity for GST-Lck-SH2 domain in ELISA.
Tyrosine-protein kinase Lck, sequence (P06239 whole entry, the tested form may be a part): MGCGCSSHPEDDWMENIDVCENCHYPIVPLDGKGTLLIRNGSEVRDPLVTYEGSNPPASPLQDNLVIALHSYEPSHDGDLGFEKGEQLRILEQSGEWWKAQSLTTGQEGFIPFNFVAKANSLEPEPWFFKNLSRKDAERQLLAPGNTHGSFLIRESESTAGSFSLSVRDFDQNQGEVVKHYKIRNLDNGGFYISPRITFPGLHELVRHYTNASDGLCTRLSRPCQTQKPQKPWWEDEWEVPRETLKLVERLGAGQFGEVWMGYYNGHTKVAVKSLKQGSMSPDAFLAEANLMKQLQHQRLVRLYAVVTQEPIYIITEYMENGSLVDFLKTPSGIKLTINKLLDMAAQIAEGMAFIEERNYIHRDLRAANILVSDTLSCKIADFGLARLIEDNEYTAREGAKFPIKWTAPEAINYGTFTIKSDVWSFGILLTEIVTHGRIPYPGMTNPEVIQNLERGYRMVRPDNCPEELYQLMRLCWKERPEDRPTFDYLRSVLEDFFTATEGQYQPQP

As a reminder, the IC50 is the point on the concentration scale where inhibition reaches its midpoint.

Where a SMILES comes first, the peptide text is derived from it. [ ]: non-standard residue; d: D form. The star is where a group is joined. pY = N[C@@H](Cc1ccc(OP(=O)(O)O)cc1)C(=O)O; Dopa = N[C@@H](Cc1ccc(O)c(O)c1)C(=O)O; Caffeoyl = O=C(/C=C/c1ccc(O)c(O)c1)*; X1 = O=C(Cc1cc(=O)oc2cc(O)ccc12)* Bounds are passed on as bounds.

Tyrosine-protein kinase Fyn, sequence (P06241 whole entry, the tested form may be a part): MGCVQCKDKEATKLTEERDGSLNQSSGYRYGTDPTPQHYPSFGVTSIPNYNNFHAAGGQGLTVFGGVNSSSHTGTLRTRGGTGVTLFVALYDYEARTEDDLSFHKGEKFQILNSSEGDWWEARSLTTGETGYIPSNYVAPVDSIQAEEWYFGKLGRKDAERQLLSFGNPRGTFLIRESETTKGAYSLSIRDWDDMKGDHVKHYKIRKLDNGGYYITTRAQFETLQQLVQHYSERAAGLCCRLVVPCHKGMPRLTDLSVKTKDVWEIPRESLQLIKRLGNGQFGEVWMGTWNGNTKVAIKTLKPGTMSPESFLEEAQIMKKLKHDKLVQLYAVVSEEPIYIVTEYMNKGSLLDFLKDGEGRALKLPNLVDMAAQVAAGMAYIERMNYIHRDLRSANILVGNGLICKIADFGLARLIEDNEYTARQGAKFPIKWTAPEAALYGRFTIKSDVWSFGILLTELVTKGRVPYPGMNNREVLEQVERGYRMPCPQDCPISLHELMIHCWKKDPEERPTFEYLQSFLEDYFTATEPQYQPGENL
Proto-oncogene tyrosine-protein kinase Src, sequence (P12931 2-536 limits assumed): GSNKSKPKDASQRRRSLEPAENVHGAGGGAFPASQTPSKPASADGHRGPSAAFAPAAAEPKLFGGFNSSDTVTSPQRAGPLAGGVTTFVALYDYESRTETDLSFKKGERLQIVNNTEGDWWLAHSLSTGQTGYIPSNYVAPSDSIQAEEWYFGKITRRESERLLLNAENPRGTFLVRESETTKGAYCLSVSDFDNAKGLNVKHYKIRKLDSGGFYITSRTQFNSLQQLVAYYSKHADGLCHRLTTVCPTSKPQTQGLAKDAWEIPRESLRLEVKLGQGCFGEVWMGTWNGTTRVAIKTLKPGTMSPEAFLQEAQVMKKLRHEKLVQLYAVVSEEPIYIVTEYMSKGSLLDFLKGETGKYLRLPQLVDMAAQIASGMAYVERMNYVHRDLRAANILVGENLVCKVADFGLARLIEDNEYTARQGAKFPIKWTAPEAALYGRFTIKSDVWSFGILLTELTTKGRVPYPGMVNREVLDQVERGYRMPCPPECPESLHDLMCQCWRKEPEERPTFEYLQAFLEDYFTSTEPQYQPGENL

For `CC(=O)N[C@@H](Cc1ccc(O)c(O)c1)C(=O)N[C@@H](CCC(=O)O)C(=O)N[C@@H](CCC(=O)O)C(=O)N[C@@H](CCC(=O)O)C(=O)O` (Ac-[Dopa]EEE-OH), the IC50 in test [1] is greater than 200 µM; in test [2] it was 160 µM; in test [3] it was 120 µM.
On to `CC[C@H](C)[C@H](NC(=O)[C@H](CCC(=O)O)NC(=O)[C@H](CCC(=O)O)NC(=O)[C@H](Cc1ccc(O)c(O)c1)NC(=O)/C=C/c1ccc(O)c(O)c1)C(=O)N[C@@H](CCC(=O)O)C(=O)O` (Caffeoyl-[Dopa]EEIE-OH), for which the IC50 was determined as 33 µM in test [1], 55 µM in test [2] and 18 µM in test [3].
The corresponding values for `CC[C@H](C)[C@H](NC(=O)[C@H](CCC(=O)O)NC(=O)[C@H](CCC(=O)O)NC(=O)[C@H](Cc1ccc(O)c(O)c1)NC(=O)Cc1cc(=O)oc2cc(O)ccc12)C(=O)N[C@@H](CCC(=O)O)C(=O)O` (X1-[Dopa]EEIE-OH) are 77 µM, 65 µM and 58 µM.
As to `CC[C@H](C)[C@H](NC(=O)[C@H](CCC(=O)O)NC(=O)[C@H](CCC(=O)O)NC(=O)[C@H](Cc1ccc(OP(=O)(O)O)cc1)NC(=O)/C=C/c1ccc(O)c(O)c1)C(=O)N[C@@H](CCC(=O)O)C(=O)O` (Caffeoyl-[pY]EEIE-OH), the IC50 was determined as 0.084 µM in test [1], 0.064 µM in test [2] and 0.042 µM in test [3].
The corresponding values for Ac-YEEIE-OH are greater than 200 µM, greater than 200 µM and greater than 200 µM.
Regarding `CC[C@H](C)[C@H](NC(=O)[C@H](CCC(=O)O)NC(=O)[C@H](CCC(=O)O)NC(=O)[C@H](Cc1ccc(OP(=O)(O)O)cc1)NC(C)=O)C(=O)N[C@@H](CCC(=O)O)C(=O)O` (Ac-[pY]EEIE-OH), the 50% inhibitory concentration (IC50) in test [1] came out at 1.1 µM; in test [3] it was 1.3 µM.
In the case of Ac-YAEIE-OH, the 50% inhibitory concentration (IC50) in test [1] is 11 µM; in test [2] it was 7 µM; in test [3] it was 3.8 µM.
On to `CC[C@H](C)[C@H](NC(=O)[C@H](CCC(=O)O)NC(=O)[C@H](CCC(=O)O)NC(=O)[C@H](Cc1ccc(O)cc1)NC(=O)/C=C/c1ccc(O)c(O)c1)C(=O)N[C@@H](CCC(=O)O)C(=O)O` (Caffeoyl-YEEIE-OH), for which the figures for the IC50 in test [1], in test [2] and in test [3] were 45 µM, 54 µM and 27 µM, respectively.
Turning to `CC[C@H](C)[C@H](NC(=O)[C@H](CCC(=O)O)NC(=O)[C@H](CCC(=O)O)NC(=O)[C@H](Cc1ccc(OP(=O)(O)O)cc1)NC(=O)Cc1cc(=O)oc2cc(O)ccc12)C(=O)N[C@@H](CCC(=O)O)C(=O)O` (X1-[pY]EEIE-OH), the IC50 was found to be 0.1 µM in test [1], 0.09 µM in test [2] and 0.081 µM in test [3].
